From patent US12398097B2, “WDR5-MYC inhibitors” (Vanderbilt University, priority 2019, dated 2025)
pKi: −log10 of the molar value.

The compounds below were run against WDR5 (Homo sapiens, UniProt P61964) (assay: Competition-based fluorescence polarization anisotropy assay). Conditions: binding to WDR5; displacement of FITC-labeled small molecule probe (analogous to Example J2 or HCH-25) or peptide probe FITC-AHx-SEEEIDVVSV; pH 6.0; Ki converted from IC50.
In short: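 Ki values derive from displacement of either a fluorescent small-molecule probe or a FITC-peptide probe from WDR5, monitored by fluorescence polarization. Assay run at pH 6.0 in 200 mM phosphate with 300 mM NaCl, 0.5 mM TCEP and 0.1% Chaps.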

| Compound | pKi |
| --- | --- |
| CC(C)[S+]([O-])c1cc(Cl)cc(NS(=O)(=O)c2cc(Br)ccc2O)c1O (stereo not shown) [Example S23.3, 5-Bromo-N-(5-chloro-2-hydroxy-3-(isopropylsulfinyl)phenyl)-2-hydroxybenzenesulfonamide] | 6.44 |
| COCCNS(=O)(=O)c1cc(Cl)cc(NS(=O)(=O)c2cc(Br)cc(Cl)c2O)c1O [Example S30, 5-bromo-3-chloro-N-(5-chloro-2-hydroxy-3-(N-(2-methoxyethyl)sulfamoyl)phenyl)-2-hydroxybenzenesulfonamide] | 5.52 |
| COCCNS(=O)(=O)c1cc(Cl)cc(NS(=O)(=O)c2cc(Br)ccc2O)c1O [Example S31, 5-bromo-N-(5-chloro-2-hydroxy-3-(N-(2-methoxyethyl)sulfamoyl)phenyl)-2-hydroxybenzenesulfonamide] | 6.19 |
| O=S(=O)(Nc1cc(Cl)cc(S(=O)(=O)NCC2CCCO2)c1O)c1cc(Br)cc(Cl)c1O (stereo not shown) [Example S32, 5-Bromo-3-chloro-N-(5-chloro-2-hydroxy-3-(N-((tetrahydrofuran-2-yl)methyl)sulfamoyl)phenyl)-2-hydroxybenzenesulfonamide] | 6.36 |
| O=S(=O)(Nc1cc(Cl)cc(S(=O)(=O)NCC2CCCO2)c1O)c1cc(Br)ccc1O (stereo not shown) [Example S32-2, 5-Bromo-N-(5-chloro-2-hydroxy-3-(N-((tetrahydrofuran-2-yl)methyl)sulfamoyl)phenyl)-2-hydroxybenzenesulfonamide] | 6.28 |
| CN1CCN(CCNS(=O)(=O)c2cc(Cl)cc(NS(=O)(=O)c3cc(Br)cc(Cl)c3O)c2O)CC1 [Example S33, 5-Bromo-3-chloro-N-(5-chloro-2-hydroxy-3-(N-(2-(4-methylpiperazin-1-yl)ethyl)sulfamoyl)phenyl)-2-hydroxybenzenesulfonamide] | 6.14 |
| CCN(CC)CCSc1cc(Cl)cc(NS(=O)(=O)c2cc(Br)cc(Cl)c2O)c1 [Example S34, 5-Bromo-3-chloro-N-(3-chloro-5-((2-(diethylamino)ethyl)thio)phenyl)-2-hydroxybenzenesulfonamide] | 6.29 |
| CCN(CC)CCS(=O)(=O)c1cc(Cl)cc(NS(=O)(=O)c2cc(Br)cc(Cl)c2O)c1 [Example S35, 5-Bromo-3-chloro-N-(3-chloro-5-((2-(diethylamino)ethyl)sulfonyl)phenyl)-2-hydroxybenzenesulfonamide] | 6.47 |
| CC(C)N(CCSc1cc(Cl)cc(NS(=O)(=O)c2cc(Br)cc(Cl)c2O)c1)C(C)C [Example S36, 5-Bromo-3-chloro-N-(3-chloro-5-((2-(diisopropylamino)ethyl)thio)phenyl)-2-hydroxybenzenesulfonamide] | 6.11 |
| CC(C)N(CCS(=O)(=O)c1cc(Cl)cc(NS(=O)(=O)c2cc(Br)cc(Cl)c2O)c1)C(C)C [Example S37, 5-Bromo-3-chloro-N-(3-chloro-5-((2-(diisopropylamino)ethyl)sulfonyl)phenyl)-2-hydroxybenzenesulfonamide] | 6.40 |
| CCN(CC)CCS(=O)(=O)c1cc(Cl)cc(NS(=O)(=O)c2cc(Br)ccc2O)c1 [Example S40, 5-Bromo-N-(3-chloro-5-((2-(diethylamino)ethyl)sulfonyl)phenyl)-2-hydroxybenzenesulfonamide] | 5.36 |
| CC(C)N(CCS(=O)(=O)c1cc(Cl)cc(NS(=O)(=O)c2cc(Br)ccc2O)c1)C(C)C [Example S41, 5-Bromo-N-(3-chloro-5-((2-(diisopropylamino)ethyl)sulfonyl)phenyl)-2-hydroxybenzenesulfonamide] | 5.42 |
| CCN(CC)CCS(=O)(=O)c1cc(Cl)cc(NS(=O)(=O)c2cc(Br)ccc2OC)c1 [Example S46, 5-Bromo-N-(3-chloro-5-((2-(diethylamino)ethyl)sulfonyl)phenyl)-2-methoxybenzenesulfonamide] | 4.69 |
| CN(C)CCCS(=O)(=O)c1cc(Cl)cc(NS(=O)(=O)c2cc(Br)cc(Cl)c2O)c1 [Example S51, 5-Bromo-3-chloro-N-(3-chloro-5-((3-(dimethylamino)propyl)sulfonyl)phenyl)-2-hydroxybenzenesulfonamide] | 5.84 |
| CN(C)CCCS(=O)(=O)c1cc(Cl)cc(NS(=O)(=O)c2cc(Br)ccc2O)c1 [Example S52, 5-Bromo-N-(3-chloro-5-((3-(dimethylamino)propyl)sulfonyl)phenyl)-2-hydroxybenzenesulfonamide] | 6.08 |
| COc1ccc(Br)cc1S(=O)(=O)Nc1cc(C2(C#N)CCC2)cc(S(C)(=O)=O)c1O [Example S59, 5-Bromo-N-(5-(1-cyanocyclobutyl)-2-hydroxy-3-(methylsulfonyl)phenyl)-2-methoxybenzenesulfonamide] | 6.51 |
| CS(=O)(=O)c1cc(C2(C#N)CCC2)cc(NS(=O)(=O)c2cc(Br)cc(Cl)c2O)c1O [Example S60, 5-Bromo-3-chloro-N-(5-(1-cyanocyclobutyl)-2-hydroxy-3-(methylsulfonyl)phenyl)-2-hydroxybenzenesulfonamide] | 7.30 |

The next lines start with the values.

| pKi | Compound |
| --- | --- |
| 7.05 | CS(=O)(=O)c1cc(C(F)(F)F)cc(NS(=O)(=O)c2cc(Br)ccc2O)c1O [Example S25, 5-Bromo-3-2-hydroxy-N-(2-hydroxy-3-(methylsulfonyl)-5-(trifluoromethyl)phenyl)benzenesulfonamide] |
| 7.00 | CS(=O)(=O)c1cc(C2CC2)cc(NS(=O)(=O)c2cc(Br)cc(Cl)c2O)c1O [Example S25-2, 5-Bromo-3-chloro-N-(5-cyclopropyl-2-hydroxy-3-(methylsulfonyl)phenyl)-2-hydroxybenzenesulfonamide] |
| 6.62 | CS(=O)(=O)c1cc(C2CC2)cc(NS(=O)(=O)c2cc(Br)ccc2O)c1O [Example S26, 5-Bromo-N-(5-cyclopropyl-2-hydroxy-3-(methylsulfonyl)phenyl)-2-hydroxybenzenesulfonamide] |
| 6.44 | NS(=O)(=O)c1cc(Cl)cc(NS(=O)(=O)c2cc(Br)cc(Cl)c2O)c1O [Example S27, 5-Bromo-3-chloro-N-(5-chloro-2-hydroxy-3-sulfamoylphenyl)-2-hydroxybenzenesulfonamide] |
| 4.68 | CNS(=O)(=O)c1cc(Cl)cc(NS(=O)(=O)c2cc(Br)cc(Cl)c2O)c1O [Example S28, 5-bromo-3-chloro-N-(5-chloro-2-hydroxy-3-(N-methylsulfamoyl)phenyl)-2-hydroxybenzenesulfonamide] |
| 4.81 | CNS(=O)(=O)c1cc(Cl)cc(NS(=O)(=O)c2cc(Br)ccc2O)c1O [Example S29, 5-bromo-N-(5-chloro-2-hydroxy-3-(N-methylsulfamoyl)phenyl)-2-hydroxybenzenesulfonamide] |
| 4.51 | CCN(CC)CCS(=O)(=O)c1cc(Cl)cc(NS(=O)(=O)c2cc(Br)cc3cccnc23)c1 [Example S43, 6-Bromo-N-(3-chloro-5-((2-(diethylamino)ethyl)sulfonyl)phenyl)quinoline-8-sulfonamide] |
| 6.54 | COc1ccc(Br)cc1S(=O)(=O)Nc1cc(Cl)cc(S(C)(=O)=O)c1O [Example S49, 5-Bromo-N-(5-chloro-2-hydroxy-3-(methylsulfonyl)phenyl)-2-methoxybenzenesulfonamide] |
| 6.10 | CS(=O)(=O)c1cc(Cl)cc(NS(=O)(=O)c2cc(Br)cc(Cl)c2O)c1F [Example S54, 5-Bromo-3-chloro-N-(5-chloro-2-fluoro-3-(methylsulfonyl)phenyl)-2-hydroxybenzenesulfonamide] |
| 6.07 | CS(=O)(=O)c1cc(Cl)cc(NS(=O)(=O)c2cc(Br)cc3c2OCC3)c1O [Example S55, 5-Bromo-N-(5-chloro-2-hydroxy-3-(methylsulfonyl)phenyl)-2,3-dihydrobenzofuran-7-sulfonamide] |
| 6.72 | CS(=O)(=O)c1cc(C2(C#N)CCC2)cc(NS(=O)(=O)c2cc(Br)cc3cccnc23)c1O [Example S61, 6-Bromo-N-(5-(1-cyanocyclobutyl)-2-hydroxy-3-(methylsulfonyl)phenyl)quinoline-8-sulfonamide] |
| 6.80 | CNC(=O)c1cc(S(F)(F)(F)(F)F)cc(NS(=O)(=O)c2cc(Br)cc(Cl)c2O)c1O [Example S63, 3-((5-Bromo-3-chloro-2-hydroxyphenyl)sulfonamido)-2-hydroxy-N-methyl-5-(pentafluoro-λ^6-sulfaneyl)benzamide] |
| 7.70 | O=C(O)c1cc(S(F)(F)(F)(F)F)cc(NS(=O)(=O)c2cc(Br)cc(Cl)c2O)c1O [Example S64, 3-((5-Bromo-3-chloro-2-hydroxyphenyl)sulfonamido)-2-hydroxy-5-(pentafluoro-λ^6-sulfaneyl)benzoic acid] |
| 7.52 | O=C(O)c1cc(S(F)(F)(F)(F)F)cc(NS(=O)(=O)c2cc(Br)ccc2O)c1O [Example S65, 3-((5-Bromo-2-hydroxyphenyl)sulfonamido)-2-hydroxy-5-(pentafluoro-λ^6-sulfaneyl)benzoic acid] |
| 7.70 | CNC(=O)c1cc(S(F)(F)(F)(F)F)cc(NS(=O)(=O)c2cc(Br)ccc2O)c1O [Example S66, 3-((5-Bromo-2-hydroxyphenyl)sulfonamido)-2-hydroxy-N-methyl-5-(pentafluoro-λ^6-sulfaneyl)benzamide] |
| 7.05 | CNC(=O)c1cc(S(F)(F)(F)(F)F)cc(NS(=O)(=O)c2cc(Br)cc3cccnc23)c1O [Example S67] |
| 7.70 | O=C(O)c1cc(S(F)(F)(F)(F)F)cc(NS(=O)(=O)c2cc(Br)cc3cccnc23)c1O [Example S68] |
| 6.11 | CNC(=O)c1cc(Cl)cc(NS(=O)(=O)c2cc(Br)cc(Cl)c2O)c1 [Example S69, 3-((5-Bromo-3-chloro-2-hydroxyphenyl)sulfonamido)-5-chloro-N-methylbenzamide] |
| 5.53 | CNC(=O)c1cc(Cl)cc(NS(=O)(=O)c2cc(Br)ccc2O)c1 [Example S70, 3-((5-Bromo-2-hydroxyphenyl)sulfonamido)-5-chloro-N-methylbenzamide] |
| 8.00 | N#CC1(c2cc(NS(=O)(=O)c3cc(Br)cc(Cl)c3O)cc(C(=O)O)c2)CCC1 [Example S71, 3-((5-Bromo-3-chloro-2-hydroxyphenyl)sulfonamido)-5-(1-cyanocyclobutyl)benzoic acid] |
